Tested on: Metabolism protein genes
Assay: DNA chip mRNA expression in yeast, metabolism protein genes (Table 7)
Type: cell-based, Saccharomyces cerevisiae S288C
Description: Yeast (Saccharomyces cerevisiae S288C (α SUC2mal mel gap2 CUP1)) were incubated at 25° C. on YPD medium (yeast extract 1%, polypepton 2%, glucose 2%). One of toxic chemical substances was added to the cells at logarithmic growth phase, and the cells were further incubated for two hours. Cells were cultured without any chemical substance in the same condition, and were used as control. Concentrations of the chemical substances were defined to inhibit the growth of the yeast but not lead to death.
After completion of the incubation, the culture was centrifuged to collect the cells. To the cells, sodium acetate buffer (50 mM sodium acetate, 10 mM EDTA, 1% SDS) was added, and the mixture was shaken at 65° C. for five minutes, followed by returning to room temperature, and obtaining the supernatant, of which the procedures were repeated two times. To the supernatant, ½ amount of a solution of phenol/chloroform was added, and the mixture was centrifuged to give a supernatant, which was added with an equal amount of chloroform, and the mixture was centrifuged to give a supernatant. To the supernatant, an equal amount of isopropanol containing 0.3 M sodium acetate was added, and the mixture was allowed to stand at room temperature for 30 minutes, after which the mixture was centrifuged to give a sediment of the whole RNAs. Seventy % ethanol was added to the sediment, and the mixture was again centrifuged to give a sediment, which was then dried and dissolved in water. mRNA was isolated from the whole RNAs as followings. In view of the fact that a poly A chain is attached to the 3′ terminus of mRNA, a polynucleotide having a poly T structure which was immobilized on the surface of latex beads was used to trap the mRNA, and then the mRNA was washed and eluted with spine column (Oligotex-dT30<Super>mRNA Purification Kit, Takara). Reverse transcription of the mRNA was conducted with a reverse transcriptase (Super Script II Reverse Transcriptase; catalogue No. 18064-014, GibcoBRL) using fluorescence-labeled nucleotides to give cDNAs that were introduced with Cy3-dUTP or Cy5-dUTP during the reverse transcription.
The labeled cDNAs were dissolved in TE buffer (10mM Tris-HCl/1 mM EDTA, pH8.0), and the solution was dropped on the DNA chip containing the whole genes of yeast (DNA Chip Research Inc. Japan) so that the cDNAs were hybridized on the DNA chip at 65° C. for over 12 hours. The fluoresces intensity of the DNA chip was read with a scanner, and the ratio relative to the fluorescence intensity resulting from the absence of chemical substance was estimated as the following, which is shown in Tables 1 to 9: […]

[Cl][Hg][Cl] [(3), HgCl2]
The level of expressed mRNA in the presence of chemical substance/The level of expressed mRNA in the absence of chemical substance (yeast gene YAL012W): 10.4 | The level of expressed mRNA in the presence of chemical substance/The level of expressed mRNA in the absence of chemical substance (yeast gene YAL038W): 3.0 | level of expressed mRNA in the presence/in the absence of chemical substance (yeast gene YBR003W): 1.0 | level of expressed mRNA in the presence/in the absence of chemical substance (yeast gene YBR011C): 2.5 | level of expressed mRNA in the presence/in the absence of chemical substance (yeast gene YBR020W): 1.9 | The level of expressed mRNA in the presence of chemical substance/The level of expressed mRNA in the absence of chemical substance (yeast gene YBR023C): 1.3 | The level of expressed mRNA in the presence of chemical substance/The level of expressed mRNA in the absence of chemical substance (yeast gene YBR029C): 1.8 | The level of expressed mRNA in the presence of chemical substance/The level of expressed mRNA in the absence of chemical substance (yeast gene YBR183W): 2.0 | The level of expressed mRNA in the presence of chemical substance/The level of expressed mRNA in the absence of chemical substance (yeast gene YBR222C): 1.3 | The level of expressed mRNA in the presence of chemical substance/The level of expressed mRNA in the absence of chemical substance (yeast gene YBR256C): 0.6 | The level of expressed mRNA in the presence of chemical substance/The level of expressed mRNA in the absence of chemical substance (yeast gene YCL009C): 2.0 | The level of expressed mRNA in the presence of chemical substance/The level of expressed mRNA in the absence of chemical substance (yeast gene YCL064C): 0.8 | level of expressed mRNA in the presence/in the absence of chemical substance (yeast gene YCR010C): 1.6 | level of expressed mRNA in the presence/in the absence of chemical substance (yeast gene YCR034W): 2.5 | The level of expressed mRNA in the presence of chemical substance/The level of expressed mRNA in the absence of chemical substance (yeast gene YCR048W): 1.0 | The level of expressed mRNA in the presence of chemical substance/The level of expressed mRNA in the absence of chemical substance (yeast gene YCR098C): 1.7 | The level of expressed mRNA in the presence of chemical substance/The level of expressed mRNA in the absence of chemical substance (yeast gene YDR019C): 1.7 | level of expressed mRNA in the presence/in the absence of chemical substance (yeast gene YDR050C): 2.3 | level of expressed mRNA in the presence/in the absence of chemical substance (yeast gene YDR073W): 0.7 | level of expressed mRNA in the presence/in the absence of chemical substance (yeast gene YDR123C): 0.4 | level of expressed mRNA in the presence/in the absence of chemical substance (yeast gene YDR178W): 3.4 | level of expressed mRNA in the presence/in the absence of chemical substance (yeast gene YDR277C): 1.0 | level of expressed mRNA in the presence/in the absence of chemical substance (yeast gene YDR284C): 3.0 | level of expressed mRNA in the presence/in the absence of chemical substance (yeast gene YDR345C): 5.6 | The level of expressed mRNA in the presence of chemical substance/The level of expressed mRNA in the absence of chemical substance (yeast gene YDR380W): 0.8 | level of expressed mRNA in the presence/in the absence of chemical substance (yeast gene YDR400W): 2.2 | level of expressed mRNA in the presence/in the absence of chemical substance (yeast gene YDR408C): 1.4 | level of expressed mRNA in the presence/in the absence of chemical substance (yeast gene YDR483W): 1.3 | The level of expressed mRNA in the presence of chemical substance/The level of expressed mRNA in the absence of chemical substance (yeast gene YDR497C): 0.6 | The level of expressed mRNA in the presence of chemical substance/The level of expressed mRNA in the absence of chemical substance (yeast gene YDR502C): 2.4 | The level of expressed mRNA in the presence of chemical substance/The level of expressed mRNA in the absence of chemical substance (yeast gene YDR516C): 7.8 | level of expressed mRNA in the presence/in the absence of chemical substance (yeast gene YEL063C): 2.4 | level of expressed mRNA in the presence/in the absence of chemical substance (yeast gene YER015W): 1.1 | The level of expressed mRNA in the presence of chemical substance/The level of expressed mRNA in the absence of chemical substance (yeast gene YER026C): 3.3 | The level of expressed mRNA in the presence of chemical substance/The level of expressed mRNA in the absence of chemical substance (yeast gene YER053C): 1.9 | The level of expressed mRNA in the presence of chemical substance/The level of expressed mRNA in the absence of chemical substance (yeast gene YER069W): 3.3 | level of expressed mRNA in the presence/in the absence of chemical substance (yeast gene YER081W): 2.7 | The level of expressed mRNA in the presence of chemical substance/The level of expressed mRNA in the absence of chemical substance (yeast gene YER096W): 2.0 | level of expressed mRNA in the presence/in the absence of chemical substance (yeast gene YER120W): 2.5 | The level of expressed mRNA in the presence of chemical substance/The level of expressed mRNA in the absence of chemical substance (yeast gene YER178W): 3.6 | level of expressed mRNA in the presence/in the absence of chemical substance (yeast gene YFL011W): 3.7 | The level of expressed mRNA in the presence of chemical substance/The level of expressed mRNA in the absence of chemical substance (yeast gene YFL014W): 5.7 | The level of expressed mRNA in the presence of chemical substance/The level of expressed mRNA in the absence of chemical substance (yeast gene YFL030W): 3.1 | The level of expressed mRNA in the presence of chemical substance/The level of expressed mRNA in the absence of chemical substance (yeast gene YFL031W): 2.1 | The level of expressed mRNA in the presence of chemical substance/The level of expressed mRNA in the absence of chemical substance (yeast gene YFL056C): 2.3 | The level of expressed mRNA in the presence of chemical substance/The level of expressed mRNA in the absence of chemical substance (yeast gene YFL057C): 1.5 | The level of expressed mRNA in the presence of chemical substance/The level of expressed mRNA in the absence of chemical substance (yeast gene YFR047C): 2.7 | level of expressed mRNA in the presence/in the absence of chemical substance (yeast gene YGL012W): 3.0 | The level of expressed mRNA in the presence of chemical substance/The level of expressed mRNA in the absence of chemical substance (yeast gene YGL022W): 1.4 | level of expressed mRNA in the presence/in the absence of chemical substance (yeast gene YGL115W): 1.2 | The level of expressed mRNA in the presence of chemical substance/The level of expressed mRNA in the absence of chemical substance (yeast gene YGL126W): 1.4 | level of expressed mRNA in the presence/in the absence of chemical substance (yeast gene YGL205W): 0.7 | The level of expressed mRNA in the presence of chemical substance/The level of expressed mRNA in the absence of chemical substance (yeast gene YGL209W): 1.1 | The level of expressed mRNA in the presence of chemical substance/The level of expressed mRNA in the absence of chemical substance (yeast gene YGL248W): 0.9 | The level of expressed mRNA in the presence of chemical substance/The level of expressed mRNA in the absence of chemical substance (yeast gene YGR037C): 2.2 | The level of expressed mRNA in the presence of chemical substance/The level of expressed mRNA in the absence of chemical substance (yeast gene YGR055W): 12.0 | level of expressed mRNA in the presence/in the absence of chemical substance (yeast gene YGR096W): 1.1 | level of expressed mRNA in the presence/in the absence of chemical substance (yeast gene YGR191W): 1.6 | The level of expressed mRNA in the presence of chemical substance/The level of expressed mRNA in the absence of chemical substance (yeast gene YGR194C): 1.3 | level of expressed mRNA in the presence/in the absence of chemical substance (yeast gene YGR204W): 2.7 | The level of expressed mRNA in the presence of chemical substance/The level of expressed mRNA in the absence of chemical substance (yeast gene YGR256W): 2.3 | The level of expressed mRNA in the presence of chemical substance/The level of expressed mRNA in the absence of chemical substance (yeast gene YGR282C): 4.6 | level of expressed mRNA in the presence/in the absence of chemical substance (yeast gene YGR288W): 1.0 | level of expressed mRNA in the presence/in the absence of chemical substance (yeast gene YHR025W): 2.4 | The level of expressed mRNA in the presence of chemical substance/The level of expressed mRNA in the absence of chemical substance (yeast gene YHR111W): 0.8 | level of expressed mRNA in the presence/in the absence of chemical substance (yeast gene YHR123W): 1.8 | The level of expressed mRNA in the presence of chemical substance/The level of expressed mRNA in the absence of chemical substance (yeast gene YHR137W): 2.4 | The level of expressed mRNA in the presence of chemical substance/The level of expressed mRNA in the absence of chemical substance (yeast gene YHR174W): 3.3 | The level of expressed mRNA in the presence of chemical substance/The level of expressed mRNA in the absence of chemical substance (yeast gene YHR176W): 1.1 | level of expressed mRNA in the presence/in the absence of chemical substance (yeast gene YHR210C): 0.6 | level of expressed mRNA in the presence/in the absence of chemical substance (yeast gene YIL006W): 1.4 | The level of expressed mRNA in the presence of chemical substance/The level of expressed mRNA in the absence of chemical substance (yeast gene YIL045W): 1.9 | The level of expressed mRNA in the presence of chemical substance/The level of expressed mRNA in the absence of chemical substance (yeast gene YIL107C): 1.1 | The level of expressed mRNA in the presence of chemical substance/The level of expressed mRNA in the absence of chemical substance (yeast gene YIL154C): 1.9 | The level of expressed mRNA in the presence of chemical substance/The level of expressed mRNA in the absence of chemical substance (yeast gene YIL155C): 1.4 | The level of expressed mRNA in the presence of chemical substance/The level of expressed mRNA in the absence of chemical substance (yeast gene YIR034C): 2.5 | The level of expressed mRNA in the presence of chemical substance/The level of expressed mRNA in the absence of chemical substance (yeast gene YIR036C): 2.6 | The level of expressed mRNA in the presence of chemical substance/The level of expressed mRNA in the absence of chemical substance (yeast gene YJL031C): 0.5 | The level of expressed mRNA in the presence of chemical substance/The level of expressed mRNA in the absence of chemical substance (yeast gene YJL068C): 3.4 | The level of expressed mRNA in the presence of chemical substance/The level of expressed mRNA in the absence of chemical substance (yeast gene YJL088W): 2.2 | The level of expressed mRNA in the presence of chemical substance/The level of expressed mRNA in the absence of chemical substance (yeast gene YJL099W): 0.3 | level of expressed mRNA in the presence/in the absence of chemical substance (yeast gene YJL121C): 1.9 | level of expressed mRNA in the presence/in the absence of chemical substance (yeast gene YJL167W): 1.4 | The level of expressed mRNA in the presence of chemical substance/The level of expressed mRNA in the absence of chemical substance (yeast gene YJL172W): 1.8 | level of expressed mRNA in the presence/in the absence of chemical substance (yeast gene YJL216C): 2.2 | The level of expressed mRNA in the presence of chemical substance/The level of expressed mRNA in the absence of chemical substance (yeast gene YJL219W): 3.1 | level of expressed mRNA in the presence/in the absence of chemical substance (yeast gene YJR077C): 2.0 | The level of expressed mRNA in the presence of chemical substance/The level of expressed mRNA in the absence of chemical substance (yeast gene YJR137C): 4.6 | level of expressed mRNA in the presence/in the absence of chemical substance (yeast gene YJR143C): 2.1 | The level of expressed mRNA in the presence of chemical substance/The level of expressed mRNA in the absence of chemical substance (yeast gene YJR148W): 2.0

From patent publication US8192962B2, “Processes for detecting toxic substances” (Daikin Industries, Ltd., priority 2001, dated 2012)
